Laboratory results as given in PMC6222718, “Ethylenediamine Derived Carboxamides of Betulinic and Ursolic Acid as Potential Cytotoxic Agents” (Molecules : A Journal of Synthetic Chemistry and Natural …, 2018).
Counter-ions that a name gives are not always drawn.

Tests used:
518A2 (melanoma) = assay: SRB cytotoxicity assay, 518A2; format: cell-based, human; settings: for EC50: Homo sapiens, SRB assay, 96 h of treatment, 518A2; for Selectivity index (SI) 518A2: SI = EC50 (NIH 3T3)/EC50 (518A2)
Description: (§1) The cytotoxicity of ursolic and betulinic carboxamides 3–30 was determined in sulforhodamine B (SRB) assays.
(§2) The cell lines used were human cancer cell lines: 518A2 (melanoma), A2780 (ovarian carcinoma), HT29 (colon adenocarcinoma), MCF-7 (breast adenocarcinoma), 8505C (thyroid carcinoma) and non-malignant mouse fibroblasts NIH 3T3. Cultures were maintained as monolayers in RPMI 1640 medium with L-glutamine (Capricorn Scientific GmbH, Ebsdorfergrund, Germany) supplemented with 10% heat inactivated fetal bovineserum (Sigma-Aldrich Chemie GmbH, Steinheim, Germany) and penicillin/streptomycin (Capricorn Scientific GmbH, Ebsdorfergrund, Germany) at 37 °C in a humidified atmosphere with 5% CO2.
(§3) The cytotoxicity of the compounds was evaluated using the sulforhodamine-B (Kiton-Red S, ABCR) micro culture colorimetric assay. Cells were seeded into 96-well plates on day 0 at appropriate cell densities to prevent confluence of the cells during the period of experiment. After 24 h, the cells were treated with 6 different concentrations (1, 3, 7, 12, 20 and 30 µM) minimum. The final concentration of DMSO/DMF never exceeded 0.5%, which was non-toxic to the cells. After a 96 h treatment, the supernatant medium from the 96-well plates was discarded, the cells were fixed with 10% trichloroacetic acid (TCA) and allowed to rest at 4 °C. After 24 h fixation, the cells were washed in a strip washer and dyed with SRB solution (100 µL, 0.4% in 1% acetic acid) for about 20 min. After dying, the plates were washed four times with 1% acetic acid to remove the excess of the dye and allowed to air-dry overnight. Tris base solution (200 µL, 10 mM) was added to each well and absorbance was measured at λ = 570 nm using a 96-well plate reader (Tecan Spectra, Crailsheim, Germany). The EC50 values were averaged from three independent experiments performed each in triplicate calculated from semi logarithmic dose response curves applying a non-linear 4P Hills-slope equation (GraphPad Prism5; variables top and bottom were set to 100 and 0, respectively).

[1] = test system: A2780 (ovarian carcinoma); assay: SRB cytotoxicity assay, A2780; format: cell-based, human; settings: for EC50: Homo sapiens, SRB assay, 96 h of treatment, A2780; for Selectivity index (SI) A2780: SI = EC50 (NIH 3T3)/EC50 (A2780)
Description: as §1, §2, §3

[2] = test system: HT29 (colon adenocarcinoma); assay: SRB cytotoxicity assay, HT29; format: cell-based, human; settings: for EC50: Homo sapiens, HT-29, SRB assay, 96 h of treatment, HT29; for Selectivity index (SI) HT29: SI = EC50 (NIH 3T3)/EC50 (HT29)
Description: as §1, §2, §3

[3] = test system: MCF-7 (breast adenocarcinoma); assay: SRB cytotoxicity assay, MCF-7; format: cell-based, human; settings: for EC50: Homo sapiens, MCF7, SRB assay, 96 h of treatment, MCF-7; for Selectivity index (SI) MCF-7: SI = EC50 (NIH 3T3)/EC50 (MCF-7)
Description: as §1, §2, §3

[4] = test system: 8505C (thyroid carcinoma); assay: SRB cytotoxicity assay, 8505C; format: cell-based, human; settings: for EC50: Homo sapiens, SRB assay, 96 h of treatment, 8505C; for Selectivity index (SI) 8505C: SI = EC50 (NIH 3T3)/EC50 (8505C)
Description: as §1, §2, §3

[5] = test system: non-malignant mouse fibroblasts NIH 3T3; assay: SRB cytotoxicity assay, NIH 3T3; format: cell-based; settings: NIH3T3, 96 h of treatment
Description: as §1, §2, §3

Row | melting point [°C] | Structure (SMILES) | EC50 (518A2 (melanoma)) [µM] | Selectivity index (SI) 518A2 (518A2 (melanoma)) | EC50 [1] [µM] | Selectivity index (SI) A2780 [1] | EC50 [2] [µM] | Selectivity index (SI) HT29 [2] | EC50 [3] [µM] | Selectivity index (SI) MCF-7 [3] | EC50 [4] [µM] | Selectivity index (SI) 8505C [4] | EC50 [5] [µM]
1 | 120 to 124 | C[C@@H]1CC[C@]2(C(=O)NCCN3CCCCC3)CC[C@]3(C)C(=CCC4[C@@]5(C)CC[C@H](O)C(C)(C)C5CC[C@]43C)C2[C@H]1C (stereo partly drawn) [Compound 13, (3β)-N-(2-Piperidin-1-ylethyl)-3-hydroxy-urs-12-en-28-amide] | 12.6 ± 0.2 | 0.28 | 7.6 ± 0.6 | 0.46 | 8.4 ± 0.7 | 0.42 | 11.1 ± 1.4 | 0.32 | 11.1 ± 0.3 | 0.32 | 3.5 ± 0.6
2 | 177 to 180 | C[C@@H]1CC[C@]2(C(=O)NCCCCN)CC[C@]3(C)C(=CCC4[C@@]5(C)CC[C@H](O)C(C)(C)C5CC[C@]43C)C2[C@H]1C (stereo partly drawn) [Compound 15, (3β)-N-(4-Aminobutyl)-3-hydroxy-urs-12-en-28-amide] | 9.3 ± 0.1 | 0.60 | 5.4 ± 1.4 | 1.04 | 2.1 ± 0.3 | 2.67 | 5.5 ± 1.1 | 1.02 | 10.8 ± 1.2 | 0.52 | 5.6 ± 0.3
3 | – | C=C(C)C1CC[C@]2(C(=O)NCCN)CC[C@]3(C)C(CCC4[C@@]5(C)CC[C@H](OC(C)=O)C(C)(C)C5CC[C@]43C)C12 (stereo partly drawn) [Compound 17, (3β)-N-(2-Aminoethyl)-3-acetyloxy-lup-20(29)-en-28-amide] | 1.6 ± 0.1 | 0.88 | 1.4 ± 0.2 | 1.00 | 1 ± 0.3 | 1.40 | 1.3 ± 0.06 | 1.08 | 2.5 ± 0.03 | 0.56 | 1.4 ± 0.1
4 | 126 to 129 | C[C@@H]1CC[C@]2(C(=O)NCCOCCN)CC[C@]3(C)C(=CCC4[C@@]5(C)CC[C@H](O)C(C)(C)C5CC[C@]43C)C2[C@H]1C (stereo partly shown) [Compound 16] | 9.9 ± 0.2 | 0.76 | 6.5 ± 1.4 | 1.15 | 3.1 ± 0.3 | 2.42 | 6.3 ± 0.6 | 1.19 | 10.6 ± 1.1 | 0.71 | 7.5 ± 0.8
5 | 156 to 159 | CC(=O)O[C@H]1CC[C@@]2(C)C(CC[C@]3(C)C2CC=C2C4[C@@H](C)[C@H](C)CC[C@]4(C(=O)NCCN4CCCC4)CC[C@]23C)C1(C)C (stereo partly drawn) [Compound 5, (3β)-N-(2-Pyrrolidin-1-ylethyl)-3-acetyloxy-urs-12-en-28-amide] | 4.5 ± 0.2 | 0.73 | 3.1 ± 0.2 | 1.06 | 2.1 ± 0.2 | 1.57 | 2.9 ± 0.7 | 1.14 | 4.3 ± 0.2 | 0.77 | 3.3 ± 0.3
6 | – | C=C(C)C1CC[C@]2(C(=O)NCCN)CC[C@]3(C)C(CCC4[C@@]5(C)CC[C@H](O)C(C)(C)C5CC[C@]43C)C12 (stereo partly drawn) [Compound 24, (3β)-N-(2-Aminoethyl)-3-hydroxy-lup-20(29)-en-28-amide] | 0.4 ± 0.01 | 1.00 | 0.4 ± 0.03 | 1.00 | 0.4 ± 0.02 | 1.00 | 0.4 ± 0.02 | 1.00 | 0.4 ± 0.07 | 1.00 | 0.4 ± 0.02
7 | – | COc1cccc2c1C(=O)c1c(O)c3c(c(O)c1C2=O)C[C@@](O)(C(=O)CO)C[C@@H]3O[C@H]1C[C@H](N)[C@H](O)[C@H](C)O1 [DRC, doxorubicin hydrochloride, reference compound] | 0.2 ± 0.05 | 0.30 | 0.01 ± 0.01 | 6.00 | 0.9 ± 0.2 | 0.07 | 1.1 ± 0.3 | 0.05 | 1.1 ± 0.4 | 0.05 | 0.06 ± 0.03
8 | – | C=C(C)[C@@H]1CC[C@]2(C(=O)O)CC[C@]3(C)[C@H](CC[C@@H]4[C@@]5(C)CC[C@H](O)C(C)(C)[C@@H]5CC[C@]43C)[C@@H]12 [BA, betulinic acid, reference compound] | 9.4 ± 0.7 | 1.39 | 8.8 ± 0.9 | 1.49 | 14.4 ± 2.3 | 0.91 | 10.2 ± 1.2 | 1.28 | – | – | 13.1 ± 1.1
9 | – | C[C@H]1[C@H](C)CC[C@]2(C(=O)O)CC[C@]3(C)C(=CC[C@@H]4[C@@]5(C)CC[C@H](O)C(C)(C)[C@@H]5CC[C@]43C)[C@H]12 [UA, ursolic acid] | 14.7 ± 0.1 | 1.27 | 11.7 ± 0.6 | 1.59 | 10.6 ± 0.7 | 1.76 | 12.7 ± 0.1 | 1.47 | 13.5 ± 1.5 | 1.39 | 18.7 ± 1.6
10 | – | C=C(C)C1CC[C@]2(C(=O)NCCN3CCCCC3)CC[C@]3(C)C(CCC4[C@@]5(C)CC[C@H](O)C(C)(C)C5CC[C@]43C)C12 (stereo partly drawn) [Compound 27, (3β)-N-(2-Piperidin-1-ylethyl)-3-hydroxy-lup-20(29)-en-28-amide] | 0.5 ± 0.1 | 0.80 | 0.4 ± 0.1 | 1.00 | 0.4 ± 0.03 | 1.00 | 0.4 ± 0.01 | 1.00 | 0.8 ± 0.09 | 0.50 | 0.4 ± 0.01

Row | Structure (SMILES) | melting point [°C] | EC50 (518A2 (melanoma)) [µM] | Selectivity index (SI) 518A2 (518A2 (melanoma)) | EC50 [1] [µM] | Selectivity index (SI) A2780 [1] | EC50 [2] [µM] | Selectivity index (SI) HT29 [2] | EC50 [3] [µM] | Selectivity index (SI) MCF-7 [3] | EC50 [4] [µM] | Selectivity index (SI) 8505C [4] | EC50 [5] [µM]
11 | C=C(C)C1CC[C@]2(C(=O)NCCOCCN)CC[C@]3(C)C(CCC4[C@@]5(C)CC[C@H](OC(C)=O)C(C)(C)C5CC[C@]43C)C12 (stereo partly drawn) [Compound 23, (3β)-N-[2-(2-Aminoethoxy)ethyl]-3-acetyloxy-lup-20(29)-en-28-amide] | 109 to 112 | 1.9 ± 0.01 | 0.53 | 1.5 ± 0.1 | 0.67 | 0.4 ± 0.1 | 2.50 | 1.4 ± 0.2 | 0.71 | 2.2 ± 0.81 | 0.45 | 1 ± 0.1
12 | C=C(C)C1CC[C@]2(C(=O)NCCCCN)CC[C@]3(C)C(CCC4[C@@]5(C)CC[C@H](O)C(C)(C)C5CC[C@]43C)C12 (stereo partly drawn) [Compound 29, (3β)-N-(4-Aminobutyl)-3-hydroxy-lup-20(29)-en-28-amide] | 130 to 133 | 0.4 ± 0.06 | 1.25 | 0.6 ± 0.1 | 0.83 | 0.4 ± 0.1 | 1.25 | 0.6 ± 0.1 | 0.83 | 0.8 ± 0.26 | 0.63 | 0.5 ± 0.1
13 | C=C(C)C1CC[C@]2(C(=O)NCCN(C)C)CC[C@]3(C)C(CCC4[C@@]5(C)CC[C@H](OC(C)=O)C(C)(C)C5CC[C@]43C)C12 (stereo partly drawn) [Compound 18, (3β)-N-[2-(Dimethylamino)ethyl]-3-acetyloxy-lup-20(29)-en-28-amide] | 108 to 110 | 1.3 ± 0.1 | 0.77 | 1.1 ± 0.05 | 0.91 | 0.3 ± 0.02 | 3.33 | 1 ± 0.3 | 1.00 | 1.4 ± 0.15 | 0.71 | 1 ± 0.4
